The text below walks through data of patent US20260125375A1 (Pfizer Inc., priority 2022, published 2026).

Like-named read-outs stand apart in the source and are kept apart here.

In one assay the target is T1, CBL-B (Homo sapiens, UniProt Q13191).
T1 construct: endogenous in cells; host or cells: Jurkat HiBit-IL2 reporter cells, C-CBL knocked out by CRISPR
The assay is described as follows: Jurkat HiBit-IL2 assay (c-CBL KO), reporter cell line expressing CBL-B only. It counts as cell-based. Particulars: geometric mean, read-out: C-CBL KO EC50 (nM) GMean. The method, boiled down: (§1)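 IL-2 secretion was measured by HiBiT luminescence after 1 h compound exposure (0.1% DMSO) and 4 h TCR/CD28 stimulation (final anti-CD3 1 μg/ml, anti-CD28 2 μg/ml, 37 °C) of Jurkat reporters lacking c-CBL or CBL-B. EC50 came from fold-of-effect versus stimulated-only cells, as geometric means across tests.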

Another assay addresses T2, C-CBL (Homo sapiens, UniProt P22681).
T2 construct: endogenous in cells; host or cells: Jurkat HiBit-IL2 reporter cells, CBL-B knocked out by CRISPR
The assay can be described thus: Jurkat HiBit-IL2 assay (CBL-B KO), reporter cell line expressing C-CBL only. It counts as cell-based. As to conditions: geometric mean, read-out: CBL-B KO EC50 (nM) GMean. In outline:
as §1
For orientation: With HiBiT, luminescence reflects the tagged protein that the partner subunit can reach.

In a further assay the target is T3, CBL-B (residues 36-427) (Homo sapiens, UniProt Q13191).
T3 construct: Purified CBL-B (residues 36-427) and C-CBL (residues 46-435) proteins from baculovirus-infected insect cells; made in house; host or cells: baculovirus-infected insect cells
The assay is described as follows: Ligand Displacement Assay (LDA), HTRF competitive binding against BODIPY-labeled fluorescent tracer, CBL-B. Particulars: geometric mean of the number of tests, read-out: CBL-B Ki (nM) GMean. In outline:
(§2)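 First, the insect-cell-expressed protein is biotinylated at its amino-terminal AviTag with BirA and coupled to SA-Tb. Next, the tracer KD is determined for each protein. Finally, compounds are titrated three-fold in duplicate […], at 2% DMSO, and Ki is reported as a geometric mean.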

A further assay concerns the target T4, C-CBL (residues 46-435) (Homo sapiens, UniProt P22681).
T4 construct: Purified CBL-B (residues 36-427) and C-CBL (residues 46-435) proteins from baculovirus-infected insect cells; made in house; host or cells: baculovirus-infected insect cells
T4 sequence (P22681 46-435): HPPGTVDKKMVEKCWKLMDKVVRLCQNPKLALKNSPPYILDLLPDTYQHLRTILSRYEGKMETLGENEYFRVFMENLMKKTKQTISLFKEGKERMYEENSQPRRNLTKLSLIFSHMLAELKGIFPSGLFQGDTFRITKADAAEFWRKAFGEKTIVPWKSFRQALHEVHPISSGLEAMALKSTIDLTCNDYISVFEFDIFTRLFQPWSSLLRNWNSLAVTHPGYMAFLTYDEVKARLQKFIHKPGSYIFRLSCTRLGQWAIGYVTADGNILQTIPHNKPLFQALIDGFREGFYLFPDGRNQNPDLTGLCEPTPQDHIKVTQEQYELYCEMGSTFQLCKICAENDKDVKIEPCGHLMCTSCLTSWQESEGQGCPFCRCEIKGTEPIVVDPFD
The assay is described as follows: Ligand Displacement Assay (LDA), HTRF competitive binding against BODIPY-labeled fluorescent tracer, C-CBL. As to conditions: geometric mean of the number of tests, read-out: C-CBL Ki (nM) GMean. In outline:
as §2

Where [1] appears, read: C-CBL KO (expressing CBL-B only), Table 16b (further repetition).
Setting [2] is: CBL-B KO (expressing C-CBL only), Table 16b (further repetition).
Where [3] appears, read: c-CBL KO (CBL-B only), anti-CD3/anti-CD28 stimulation 4 hours, Table 16a.
Setting [4] is: CBL-B KO (C-CBL only), anti-CD3/anti-CD28 stimulation 4 hours, Table 16a.

Turning to `CC(NC(=O)[C@@H](C)O)c1nc(C(F)(F)F)cc2c(-c3cccc([C@H](c4nncn4C)C4CCC4)c3)n[nH]c12` (single isomer, unassigned) [Example I5], the concentration giving a half-maximal response (EC50) on CBL-B (setting [1]) came out at 62 nM; at C-CBL (setting [2]), 299 nM. Also, the Ki was found to be 2.7 nM on CBL-B (residues 36-427) and 22.9 nM on C-CBL (residues 46-435).

Take `C[C@H](O)CN[C@H](C)c1nc(C(F)(F)F)cc2c(-c3cccc([C@H](c4nncn4C)C4CCC4)c3)n[nH]c12` (single isomer, unassigned) [Example D18]: the EC50 at CBL-B (setting [1]) was 22 nM; on CBL-B (setting [3]) it was 10 nM; on C-CBL (setting [4]) it was 96 nM; on C-CBL (setting [2]), 137 nM. The Ki at CBL-B (residues 36-427) came out at 1 nM; on C-CBL (residues 46-435), 9 nM.

For `C[C@H](N[C@@H]1CC[C@H]1O)c1nc(C(F)(F)F)cc2c(-c3cccc([C@H](c4nncn4C)C4CCC4)c3)n[nH]c12` (single isomer, unassigned) [Example D23], the EC50 at CBL-B (setting [1]) was found to be 21 nM; on CBL-B (setting [3]), 6 nM; at C-CBL (setting [4]), 63 nM; at C-CBL (setting [2]), 124 nM. Also, the Ki on CBL-B (residues 36-427) stood at 1.8 nM; on C-CBL (residues 46-435) it was 9.9 nM.

Take `C[C@@H](c1nc(C(F)(F)F)cc2c(-c3cccc([C@H](c4nncn4C)C4CCC4)c3)n[nH]c12)N1CC[C@H](O)C1` (single isomer, unassigned) [Example D70]: the EC50 was 163 nM at CBL-B (setting [1]) and 618 nM on C-CBL (setting [2]). Besides, the Ki at CBL-B (residues 36-427) was 7.1 nM; at C-CBL (residues 46-435), 48.4 nM.

Consider `CC(NC1CCC1)c1nc(C2CC2)cc2c(-c3cccc(C4(Cc5nncn5C)COC4)c3)n[nH]c12` (single isomer, unassigned) [Example H4, N-{(1ξ)-1-[5-cyclopropyl-3-(3-{3-[(4-methyl-4H-1,2,4-triazol-3-yl)methyl]oxetan-3-yl}phenyl)-1H-pyrazolo[3,4-c]pyridin-7-yl]ethyl}cyclobutanamine], for which the EC50 on CBL-B (setting [1]) amounted to 11 nM; on CBL-B (setting [3]) it was 5 nM; at C-CBL (setting [4]), 43 nM; at C-CBL (setting [2]) it was 28 nM. For the same compound, the results for the Ki on CBL-B (residues 36-427) and on C-CBL (residues 46-435) were 1 nM and 4.5 nM, respectively.

As for `CC(NCCO)c1nc(C(F)(F)F)cc2c(-c3cccc([C@H](c4nncn4C)C4CCC4)c3)n[nH]c12` (single isomer, unassigned) [Example C41], the EC50 on CBL-B (setting [1]) is 154 nM; at CBL-B (setting [3]), 42 nM; on C-CBL (setting [4]) it was 327 nM; on C-CBL (setting [2]), 877 nM. Further, the Ki on CBL-B (residues 36-427) turned out to be 3.2 nM; at C-CBL (residues 46-435), 30.1 nM.

By EC50 is commonly meant the concentration giving half of the maximal effect. As a reminder, the Ki is the equilibrium dissociation constant of an inhibitor or competing ligand from its target.
